{"source": "ChEMBL document CHEMBL1201862", "about": "“PubChem BioAssay data set” (2004)", "assay_in_all_cases": "inhibition of tumour cell growth, NCI panel, 48 h", "key": {"[1]": {"test_system": "Malme-3M"}, "[2]": {"test_system": "SF-539"}, "[3]": {"test_system": "XF498"}, "[4]": {"test_system": "786-0"}, "[5]": {"test_system": "OVCAR-8"}, "[6]": {"test_system": "EKVX"}, "[7]": {"test_system": "UACC-257"}, "[8]": {"test_system": "HCT-15"}, "[9]": {"test_system": "KM12"}, "[10]": {"test_system": "RXF 393"}, "[11]": {"test_system": "MOLT-4"}, "[12]": {"test_system": "ACHN"}, "[13]": {"test_system": "LXFL 529"}, "[14]": {"test_system": "UO-31"}, "[15]": {"test_system": "SK-MEL-5"}, "[16]": {"test_system": "A549"}, "[17]": {"test_system": "IGROV-1"}, "[18]": {"test_system": "DU-145"}}, "note": "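Five compound concentrations were applied to cells in 96-well plates for 48 hours; endpoints were derived by simple linear interpolation of the resulting dose-response curve. At the GI50, growth is halved.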 Calls of active or inactive are those of the source. No stated cut-off is given here; in the data, active = GI50 up to about 1.1 µM and inactive = higher.", "data": [{"compound": "C=C(CN(C)C)C(=O)c1ccc(C(=O)C(=C)CN(C)C)cc1", "values": [{"measurement": "GI50", "setting": "[1]", "value": "> 100 µM (inactive)"}, {"measurement": "GI50", "setting": "[2]", "value": "> 100 µM (inactive)"}, {"measurement": "GI50", "setting": "[3]", "value": "> 100 µM (inactive)"}, {"measurement": "GI50", "setting": "[4]", "value": "> 100 µM (inactive)"}, {"measurement": "GI50", "setting": "[5]", "value": "> 100 µM (inactive)"}, {"measurement": "GI50", "setting": "[6]", "value": "> 100 µM (inactive)"}, {"measurement": "GI50", "setting": "[7]", "value": "> 100 µM (inactive)"}, {"measurement": "GI50", "setting": "[8]", "value": "> 100", "unit": "µM"}, {"measurement": "GI50", "setting": "[9]", "value": "> 100 µM (inactive)"}, {"measurement": "GI50", "setting": "[10]", "value": "> 100 µM (inactive)"}, {"measurement": "GI50", "setting": "[11]", "value": "> 100 µM (inactive)"}, {"measurement": "GI50", "setting": "[12]", "value": "> 100 µM (inactive)"}, {"measurement": "GI50", "setting": "[13]", "value": "> 100 µM (inactive)"}, {"measurement": "GI50", "setting": "[14]", "value": "> 100 µM (inactive)"}, {"measurement": "GI50", "setting": "[15]", "value": "> 100 µM (inactive)"}, {"measurement": "GI50", "setting": "[16]", "value": "35.2 µM (inactive)"}, {"measurement": "GI50", "setting": "[17]", "value": "> 100 µM (inactive)"}, {"measurement": "GI50", "setting": "[18]", "value": "> 100 µM (inactive)"}]}]}
